Experiments:
Format in all cases: cell-based
[1] = system: human vaginal epithelial cells; test: Neutral red screening of human cytotoxicity; conditions: 24 h incubation; positive control and validation component
Method: Potential cytotoxicity of the extracts was assayed in the neutral red-screening test using human vaginal epithelial cells at 80% confluence corresponding to 2*10^5 cells per well of 96 wells as follows:
The extracts freshly extracted and stored once frozen were incubated for 24 h with the epithelial cells at different concentrations. At the end of the experiment the cells were washed 3× and incubated with Neutral Red (NR) medium (50 μg/ml) for 3 hours at 37° C., 5.0% CO2/air. A water solution at 0.5% ethanol was used as negative control (present in all samples). […] Cells were then washed and NR quantified. 100% staining intensity indicate intact lysosomal activity. 0% indicates little to no survival of human cells. Results were analysed according to the Hill function. IC50 or concentrations with highest impairment of cell survival were determined.
Desorb solution was prepared in a ratio of water-ethanol-acetic acid glacial (49:50:1; v:v) during 20 min with shaking. Wavelength used for spectrophotometric reading of NR optical density was 540 nm. Test Criteria were that the differences between VC mean; R2>0.85; Point >0%<100%. The results are presented on FIG. 4.

[2] = system: Candida albicans adhesion on human vaginal epithelial cells (End1/E6E7); test: Inhibitory activity on Candida adhesion on human vaginal epithelial cells
Method: A tissue culture plate of 24 wells was prepared with vaginal epithelial cells. 0.5 ml of a culture of 10^5 cells/ml in keratinocyte SFM were put in each well of a 24-well plate and incubated for 2 days at 37° C. and 5% CO2. Each well was filled (after taking away the vaginal cells growth media) with 1 ml C. albicans culture of 5·10^6 cfu/ml mixed with test substance. As control, the solvent of each test substance was also tested. The plate was incubated at 37° C. for 6 h or 2 h ([…] for Example 2, 2 h for Example 4), permitting Candida cells to adhere to vaginal cells. After incubation the Candida culture was pipetted away from each well, which were then washed 3 times with 0.5 ml PBS. The epithelial cells-Candida layer was treated with a 0.05% trypsin solution (concentration of 1 ml/25 cm^2), which was then neutralized by addition of DMEM with 10% FCS. […] The obtained cell solution was diluted and analyzed with pour plate method (Manuel Suisse des denrées alimentaires, Chapitre 56, 2000, revision partielle 2004): 1 ml of the appropriate dilution was pipetted into an empty Petri dish and about 15-20 ml of SDA, cooled down to 45-50° C., poured over it.
After 24 h incubation at 37° C. the colonies were counted and the result (in cfu/ml) multiplied 1.5 times to obtain the number of adhered cell in each well. […]

[3] = system: Candida albicans cells (ATCC MYA-2876); test: Candida growth test (MIC, visual turbidity score)
Method: Candida albicans cells (ATCC MYA-2876) were incubated in SB (Sabouraud broth, Biolife 4020002) for 24 h at 30° C. and 150 rpm. The obtained culture was enumerated with a Neubauer Improved count chamber and concentration adjusted to 2.5·10^3 cfu/ml by dilution with sterile SB. Vaginal cells (End1/E6E7, ATCC CRL-2615) have been grown in Keratinocyte SFM (Gibco 17005-42) with 0.1 ng/ml human recombinant EGF (Gibco 10450-013), 0.05 mg/ml bovine pituitary extract (Gibco 13028-014) and additional calcium chloride 44.1 mg/L according to instructions by the provider, with media change every 2-3 days.
Minimal inhibitory concentration (MIC) of the plant extracts and antifungal substances was accomplished through tissue culture plates of 96 wells with flat bottom (Becton Dickinson). In each well 100 μl of the 2.5·10^3 cfu/ml Candida albicans culture obtained as described above in SB was mixed with 100 μl plant extract of different concentrations (0.025, 0.083, 0.25, 0.83, 2.5 and 8.3 mg/ml). Together with each dilution series a blank well was prepared with 100 μl culture and 100 μl of 5% ethanol-water solution. Fluconazole (Sigma, F8929) has been taken as positive control. Fluconazole solutions of different concentrations (4, 16, 32, 65, 650 μg/ml) have been freshly prepared prior testing. A well with only broth (100 μl) plus water (100 μl) and a well with broth plus plant extract (100 μl) were also prepared for color control. The plate was then incubated at 37° C. for 24 h and 48 h.
The evaluation of the growth inhibitory activities was conducted by visual observation of the turbidity of the wells and by attribution of a score from 0 (no growth) to 4 (maximal growth, similar to control well). MIC value of a substance is defined as the concentration which permits to reach a score of less than […]. […] In fact, the score of 2 represents an inhibition of Candida concentrations of about 80%. Results are presented on FIG. 2. […]

CCCCCCCCCCCCOS(=O)(=O)[O-].[Na+] [SDS]
IC50 neutral red cytotoxicity [1]: 8 to 25 µg/mL

Pepstatin A
% inhibition (adhesion of Candida albicans to human epithelial cells) ([2]; Table 3, at 1 μM): 5 (at 1 μM) %

OC(Cn1cncn1)(Cn1cncn1)c1ccc(F)cc1F [fluconazole]
Stability of the growth inhibition effect, 24 h versus 48 h ([3]; Example 1, 24 h and 48 h of treatment): maximal effect at 24 h and reduced effects at 48 h | Candida growth score (arbitrary unit, 0 no growth to 4 maximal growth) ([3]; after 48 h incubation, 2 separate runs): 2 to 3 arbitrary unit | Inhibition of Candida growth ([3]; all 5 concentrations applied (4, 16, 32, 65, 650 μg/ml)): inhibited Candida growth to a similar degree | Adhesion of Candida, average value (100% = control) ([2]; Example 1, fluconazole at 1 mg/ml, 6 hour incubation): 100%

From patent publication US10391134B2, “Anti-candida compositions and uses thereof” (PharmAlp SA, priority 2014, dated 2019)
